Data: patent US9120791B2, “Indolizine compounds, a process for their preparation and pharmaceutical compositions containing them” (LES LABORATOIRES SERVIER, priority 2012, dated 2015)
Counter-ions that a name gives are not always drawn. Like-named read-outs stand apart in the source and are kept apart here.

Experiments:
[1] = system: RS4;11 leukaemia tumour line; assay: In vitro cytotoxicity (Microculture Tetrazolium Assay, 48 hours); type: cell-based; conditions: read-out: IC50 (nM) MTT RS4
Protocol: The cytotoxicity studies were carried out on the RS4;11 leukaemia tumour line.
The cells are distributed onto microplates and exposed to the test compounds for 48 hours.

Bcl-2 protein = Bcl-2 protein (Homo sapiens (Human), UniProt P10415); assay: Inhibition of Bcl-2 by the fluorescence polarisation technique; type: binding; conditions: read-out: IC50 (nM) Bcl-2 FP
Chain of Bcl-2 protein (P10415 whole entry): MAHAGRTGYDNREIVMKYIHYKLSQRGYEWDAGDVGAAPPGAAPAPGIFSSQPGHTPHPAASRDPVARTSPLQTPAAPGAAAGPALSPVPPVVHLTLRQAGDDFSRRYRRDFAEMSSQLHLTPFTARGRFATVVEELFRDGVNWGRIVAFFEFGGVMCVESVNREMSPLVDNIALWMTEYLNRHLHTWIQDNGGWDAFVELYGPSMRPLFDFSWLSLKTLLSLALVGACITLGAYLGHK
Protocol: The fluorescence polarisation tests were carried out on microplates (384 wells). […] After incubation for 2 hours, the fluorescence polarisation is measured.

[2] = Homo sapiens, RS4;11 cells, 48 hours exposure, MTT, concentration that inhibits cell viability by 50%
[3] = fluorescence polarisation test, concentration that inhibits fluorescence polarisation by 50%
[4] = RS4;11 cells, 48 hours exposure, MTT, concentration that inhibits cell viability by 50%

Compound	IC50 [1, 2]	further results
O=C(c1cc(-c2cc3c(cc2C(=O)N2Cc4ccccc4C[C@H]2CN2CCOCC2)OCO3)n2c1CCCC2)N(c1ccccc1)c1ccc(O)cc1 [Example 1, N-(4-Hydroxyphenyl)-3-{6-[((3S)-3-(4-morpholinylmethyl)-3,4-dihydro-2(1H)-isoquinolinyl)carbonyl]-1,3-benzdioxol-5-yl}-N-phenyl-5,6,7,8-tetrahydro-1-indolizine carboxamide hydrochloride]	60.1 nM	
O=C(c1cc(-c2cc3c(cc2C(=O)N2Cc4ccccc4C[C@H]2CN2CCOCC2)OCO3)n2c1CCCC2)N(c1ccc(O)cc1)c1ccc(OC(F)(F)F)cc1 [Example 5, N-(4-Hydroxyphenyl)-3-{6-[((3S)-3-(4-morpholinylmethyl)-3,4-dihydro-2(1H)-isoquinolinyl)carbonyl]-1,3-benzodioxol-5-yl}-N-[4-(trifluoromethoxy)phenyl]-5,6,7,8-tetrahydro-1-indolizine carboxamide hydrochloride]	98 nM	IC50 (Bcl-2 protein; [3]): 51 nM
O=C(c1cc(-c2cc3c(cc2C(=O)N2Cc4ccccc4C[C@H]2CN2CCOCC2)OCO3)n2c1CCCC2)N(c1ccc(O)cc1)c1ccc(O)cc1 [Example 6, N,N-bis(4-Hydroxyphenyl)-3-{6-[((3S)-3-(4-morpholinylmethyl)-3,4-dihydro-2(1H)-isoquinolinyl)carbonyl]-1,3-benzodioxol-5-yl}-5,6,7,8-tetrahydro-1-indolizine carboxamide hydrochloride]		IC50 ([1]; Homo sapiens, RS4-11, 48 h): 30 nM; IC50 (Bcl-2 protein; [3]): 15 nM
Cn1ccc2cc(N(C(=O)c3cc(-c4cc5c(cc4C(=O)N4Cc6ccccc6C[C@H]4CN4CCOCC4)OCO5)n4c3CCCC4)c3ccc(O)cc3)ccc21 [Example 10, N-[4-(Hydroxy)phenyl]-N-(1-methyl-1H-indol-5-yl)-3-{6-[((3S)-3-(4-morpholinylmethyl)-3,4-dihydro-2(1H)-isoquinolinyl)carbonyl]-1,3-benzodioxol-5-yl}-5,6,7,8-tetrahydro-1-indolizine carboxamide hydrochloride]	11 nM	
CN1CCN(C[C@@H]2Cc3ccccc3CN2C(=O)c2cc3c(cc2-c2cc(C(=O)N(c4ccc(O)cc4)c4ccc5c(ccn5C)c4)c4n2CCCC4)OCO3)CC1 [Example 13, N-(4-Hydroxyphenyl)-N-(1-methyl-1H-indol-5-yl)-3-{6-[((3S)-3-[(4-methyl-1-piperazinyl)methyl]-3,4-dihydro-2(1H)-isoquinolinyl)carbonyl]-1,3-benzodioxol-5-yl}-5,6,7,8-tetrahydro-1-indolizine carboxamide bis(hydrochloride)]	8.63 nM	IC50 (Bcl-2 protein; [3]): 12 nM
Cn1ccc2cc(N(C(=O)c3cc(-c4cc5c(cc4C(=O)N4Cc6ccccc6C[C@H]4CN4CCCOCC4)OCO5)n4c3CCCC4)c3ccc(O)cc3)ccc21 [Example 14, N-(4-Hydroxyphenyl)-N-(1-methyl-1H-indol-5-yl)-3-{6-[((3S)-3-(1,4-oxazepan-4-ylmethyl)-3,4-dihydro-2(1H)-isoquinolinyl)carbonyl]-1,3-benzodioxol-5-yl}-5,6,7,8-tetrahydro-1-indolizine carboxamide hydrochloride]	10.7 nM	IC50 (Bcl-2 protein; [3]): 16 nM
C[C@@H]1COCCN1C[C@@H]1Cc2ccccc2CN1C(=O)c1cc2c(cc1-c1cc(C(=O)N(c3ccc(O)cc3)c3ccc4c(ccn4C)c3)c3n1CCCC3)OCO2 [Example 15, N-(4-Hydroxyphenyl)-N-(1-methyl-1H-indol-5-yl)-3-{6-[((3S)-3-{[(3R)-3-methylmorpholinyl]methyl}-3,4-dihydro-2(1H)-isoquinolinyl)carbonyl]-1,3-benzodioxol-5-yl}-5,6,7,8-tetrahydro-1-indolizine carboxamide hydrochloride]		IC50 [1, 4]: 20.4 nM; IC50 (Bcl-2 protein): 17 nM
C[C@H]1COCCN1C[C@@H]1Cc2ccccc2CN1C(=O)c1cc2c(cc1-c1cc(C(=O)N(c3ccc(O)cc3)c3ccc4c(ccn4C)c3)c3n1CCCC3)OCO2 [Example 16, N-(4-Hydroxyphenyl)-N-(1-methyl-1H-indol-5-yl)-3-{6-[((3S)-3-{[(3S)-3-methylmorpholinyl]methyl}-3,4-dihydro-2(1H)-isoquinolinyl)carbonyl]-1,3-benzodioxol-5-yl}-5,6,7,8-tetrahydro-1-indolizine carboxamide hydrochloride]		IC50 [1, 4]: 23.4 nM; IC50 (Bcl-2 protein): 18 nM
CCOc1ccc(C(=O)N2Cc3ccccc3C[C@H]2CN2CCOCC2)c(-c2cc(C(=O)N(c3ccc(O)cc3)c3ccc4c(ccn4C)c3)c3n2CCCC3)c1 [Example 36, 3-{5-Ethoxy-2-[((3S)-3-(4-morpholinylmethyl)-3,4-dihydro-2(1H)-isoquinolinyl)carbonyl]phenyl}-N-(4-hydroxyphenyl)-N-(1-methyl-H-indol-5-yl)-5,6,7,8-tetrahydro-1-indolizine carboxamide hydrochloride]		IC50 [1, 4]: 135 nM
Cl.[2H]C1([2H])Oc2cc(C(=O)N3Cc4ccccc4C[C@H]3CN3CCOCC3)c(-c3cc(C(=O)N(c4ccc(O)cc4)c4ccc5c(ccn5C)c4)c4n3CCCC4)cc2O1 [Example 37, N-(4-Hydroxyphenyl)-N-(1-methyl-1H-indol-5-yl)-3-{2,2-dideuterio-6-[((3S)-3-(4-morpholinylmethyl)-3,4-dihydro-2(1H)-isoquinolinyl)carbonyl]-1,3-benzodioxol-5-yl}-5,6,7,8-tetrahydro-1-indolizine carboxamide hydrochloride]	11.6 nM	
Cl.[2H]C1([2H])Oc2cc(C(=O)N3Cc4ccccc4C[C@H]3CN3CCOCC3)c(-c3cc(C(=O)N(c4ccccc4)c4ccc(O)cc4)c4n3CCCC4)cc2O1 [Example 38, N-(4-Hydroxyphenyl)-3-{2,2-dideuterio-6-[((3S)-3-(4-morpholinylmethyl)-3,4-dihydro-2(1H)-isoquinolinyl)carbonyl]-1,3-benzodioxol-5-yl}-N-phenyl-5,6,7,8-tetrahydro-1-indolizine carboxamide hydrochloride]	61.8 nM	
Cn1ccc2cc(N(C(=O)c3cc(-c4cc5c(cc4C(=O)N4Cc6ccccc6C[C@H]4CN4CCOCC4)OCO5)n4c3CCCCC4)c3ccc(O)cc3)ccc21 [Example 84, hydrochloride]	20.6 nM	
O=C(c1cc(-c2cc(Cl)ccc2C(=O)N2Cc3ccccc3C[C@H]2CN2CCOCC2)n2c1CCCC2)N(c1ccc(O)cc1)c1cncnc1 [Example 141, 3-(5-Chloro-2-{[(3S)-3-(morpholin-4-ylmethyl)-3,4-dihydroisoquinolin-2(1H)-yl]carbonyl}phenyl)-N-(4-hydroxyphenyl)-N-(pyrimidin-5-yl)-5,6,7,8-tetrahydroindolizine-1-carboxamide hydrochloride]	72.5 nM	
O=C(c1cc(-c2cc(Cl)ccc2C(=O)N2Cc3ccccc3C[C@H]2CN2CCOCC2)n2c1CCCC2)N(c1ccc(O)cc1)c1cccnc1 [Example 142, 3-(5-Chloro-2-{[(3S)-3-(morpholin-4-ylmethyl)-3,4-dihydroisoquinolin-2(1H)-yl]carbonyl}phenyl)-N-(4-hydroxyphenyl)-N-(pyridin-3-yl)-5,6,7,8-tetrahydroindolizine-1-carboxamide bis(hydrochloride)]	66.1 nM	
COc1c(F)cc(N(C(=O)c2cc(-c3cc(Cl)ccc3C(=O)N3Cc4ccccc4C[C@H]3CN3CCOCC3)n3c2CCCC3)c2ccc(O)cc2)cc1F [Example 143, 3-(5-Chloro-2-{[(3S)-3-(morpholin-4-ylmethyl)-3,4-dihydroisoquinolin-2(1H)-yl]carbonyl}phenyl)-N-(3,5-difluoro-4-methoxyphenyl)-N-(4-hydroxyphenyl)-5,6,7,8-tetrahydroindolizine-1-carboxamide hydrochloride]	43.8 nM	
O=C(c1cc(-c2cc(Cl)ccc2C(=O)N2Cc3ccccc3C[C@H]2CN2CCOCC2)n2c1CCCC2)N(c1ccncc1)c1ccc(O)cc1 [Example 144, 3-(5-Chloro-2-{[(3S)-3-(morpholin-4-ylmethyl)-3,4-dihydroisoquinolin-2(1H)-yl]carbonyl}phenyl)-N-(4-hydroxyphenyl)-N-(pyridin-4-yl)-5,6,7,8-tetrahydroindolizine-1-carboxamide bis(hydrochloride)]	59.9 nM	
COc1ccc(N(C(=O)c2cc(-c3cc(Cl)ccc3C(=O)N3Cc4ccccc4C[C@H]3CN3CCOCC3)n3c2CCCC3)c2ccc(O)cc2)cc1F [Example 145, 3-(5-Chloro-2-{[(3S)-3-(morpholin-4-ylmethyl)-3,4-dihydroisoquinolin-2(1H)-yl]carbonyl}phenyl)-N-(3-fluoro-4-methoxyphenyl)-N-(4-hydroxyphenyl)-5,6,7,8-tetrahydroindolizine-1-carboxamide hydrochloride]	28.9 nM	
COCCN(C)C[C@@H]1Cc2ccccc2CN1C(=O)c1cc2c(cc1-c1cc(C(=O)N(c3ccccc3)c3ccc(O)cc3)c3n1CCCC3)OCO2 [Example 146, N-(4-Hydroxyphenyl)-3-(6-{[(3S)-3-{[(2-methoxyethyl)(methyl)amino]-methyl}-3,4-dihydroisoquinolin-2(1H)-yl]carbonyl}-1,3-benzodioxol-5-yl)-N-phenyl-5,6,7,8-tetrahydroindolizine-1-carboxamide hydrochloride]	153 nM	
O=C(c1cc(-c2cc3c(cc2C(=O)N2Cc4ccccc4C[C@H]2CN2CCS(=O)(=O)CC2)OCO3)n2c1CCCC2)N(c1ccccc1)c1ccc(O)cc1 [Example 147, 3-(6-{[(3S)-3-[(1,1-Dioxidothiomorpholin-4-yl)methyl]-3,4-dihydroisoquinolin-2(1H)-yl]carbonyl}-1,3-benzodioxol-5-yl)-N-(4-hydroxyphenyl)-N-phenyl-5,6,7,8-tetrahydroindolizine-1-carboxamide hydrochloride]	74.2 nM	
